Measured values published in publication PMC8504577, “Evaluation of a Clinically Relevant Drug–Drug Interaction Between Rosuvastatin and Clopidogrel and the Risk of Hepatotoxicity” (Frontiers in Pharmacology, 2021).
Like-named read-outs stand apart in the source and are kept apart here.

Assays:
BCRP [1] = target: T1, BCRP (Homo sapiens, UniProt Q9UNQ0); test: Inhibition of RSV transport in BCRP-expressing membrane vesicles; format: biochemical; set-up: purchased GenoMembrane Co., Ltd. (Yokohama, Japan) GM0008; host or cells: Sf9 insect cells
T1 sequence (Q9UNQ0 1-655): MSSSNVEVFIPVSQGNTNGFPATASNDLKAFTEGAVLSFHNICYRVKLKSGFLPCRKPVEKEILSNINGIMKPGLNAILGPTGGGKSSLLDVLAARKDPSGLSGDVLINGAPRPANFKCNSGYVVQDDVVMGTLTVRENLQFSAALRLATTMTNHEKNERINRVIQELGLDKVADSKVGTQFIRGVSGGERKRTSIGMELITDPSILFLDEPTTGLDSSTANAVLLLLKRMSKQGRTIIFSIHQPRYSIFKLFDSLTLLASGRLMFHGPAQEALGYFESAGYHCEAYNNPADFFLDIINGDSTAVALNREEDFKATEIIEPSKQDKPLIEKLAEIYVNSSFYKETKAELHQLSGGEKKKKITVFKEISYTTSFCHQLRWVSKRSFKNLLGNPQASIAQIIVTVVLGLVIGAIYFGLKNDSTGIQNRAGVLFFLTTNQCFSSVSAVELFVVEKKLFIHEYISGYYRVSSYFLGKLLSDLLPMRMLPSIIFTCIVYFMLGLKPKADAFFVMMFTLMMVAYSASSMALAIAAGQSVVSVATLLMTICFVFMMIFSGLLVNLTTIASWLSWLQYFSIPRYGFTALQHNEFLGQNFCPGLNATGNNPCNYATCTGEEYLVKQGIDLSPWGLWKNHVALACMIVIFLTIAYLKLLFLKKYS
Protocol: (§1) The vesicular transport activity was determined by the 96-well rapid filtration method in BCRP- and MRP2-expressing membrane vesicles. […] Meanwhile, 5 μL RSV (final concentration, 1 μM) and 20 μL reagent C2 were pre-incubated at 37°C for 5 min. Then, the transport was initiated by mixing them in a 50 μL reaction system and incubated for the designated time at 37°C. The transport was terminated by adding 200 μL of cold buffer B2 at 4°C. Then, the mixture was filtered using a 96-well filter plate. After washing the vesicles five times with 200 μL of cold buffer B2 at 4°C, the vesicles were lysed with 50 μL of 80% […] twice and then centrifuged at 2000 rpm/min for 2 min. Lysates were collected and then centrifuged at 12,000 rpm/min for 5 min. The supernatants were injected onto the LC-MS/MS. The same procedures were applied to AMP-containing samples except that reagent D2 was used instead of reagent C2. All experiments were performed in quadruplicate.
Statistical analysis was performed using SPSS ver. 22.0 (IBM, Chicago, IL, United States).

BCRP [2] = details: read-out: IC50 BCRP; BCRP-mediated RSV transport, Caco-2 cells; ref Elsby et al. (2016); cited from earlier work
OATP1B3 = system: OATP1B3; set-up: method as in Elsby et al., 2016; details: ref Elsby et al., 2016; cited from earlier work
[3] = system: sodium taurocholate cotransporting polypeptide (NTCP); details: ref Elsby et al., 2016; cited from earlier work
MRP2 = target: T2, MRP2 (Homo sapiens, UniProt Q92887); test: RSV uptake into MRP2-expressing membrane vesicles; format: biochemical; details: ATP vs AMP; data not shown
T2 construct: purchased GenoMembrane Co., Ltd. (Yokohama, Japan) GM0001
Protocol: as §1

[4] = Hepatobiliary transport study in rats; format: in vivo, Sprague-Dawley rats; details: for Tmax / Kp / Cmax / AUC(0-t): Sprague-Dawley, rat; for Tmax / Cmax / AUC(0-t): 5 mg/kg; for Kp: liver/plasma, read-out: Liver AUC0-5min/Plasma AUC0-5min; for AUC(0-t): read-out: Plasma AUC0-5min (converted); for CLint,bile / CLuptake,liver: integration plot method
Protocol: For the hepatobiliary transport study, 24 rats were randomly assigned into eight groups (n = 3, each group, groups V to XII) and they received a p.o. dose as oral gavage of CP (27 mg/kg) for 20 days. The remaining 24 rats were also randomly assigned into eight groups (n = 3, each group, groups XIII to XX) and received the same volume of vehicle control for 20 days. […] On day 21, rats were anesthetized and incised along the abdominal midline, and bile duct intubation was performed prior to drug administration. […] Rats were euthanized at 0.25, 0.47, 0.67, 1, 1.5, 2, 2.5, and 5 min post dose. Arterial blood, bile, and liver samples were collected.
Supplementary Table 2. Pharmacokinetic parameters of hepatobiliary transport study in rats. (n= 3) RSV CLuptake,liver and CLint,bile were calculated by integration plot methods.^[1, 2]

[5] = plasma, iv, i.v. RSV 5 mg/kg, with DDI (multiple p.o. CP 27 mg/kg)
[6] = plasma, iv, i.v. RSV 5 mg/kg, without DDI
[7] = i.v. RSV 5 mg/kg, with DDI (multiple p.o. CP 27 mg/kg)

T2 sequence (Q92887 whole entry): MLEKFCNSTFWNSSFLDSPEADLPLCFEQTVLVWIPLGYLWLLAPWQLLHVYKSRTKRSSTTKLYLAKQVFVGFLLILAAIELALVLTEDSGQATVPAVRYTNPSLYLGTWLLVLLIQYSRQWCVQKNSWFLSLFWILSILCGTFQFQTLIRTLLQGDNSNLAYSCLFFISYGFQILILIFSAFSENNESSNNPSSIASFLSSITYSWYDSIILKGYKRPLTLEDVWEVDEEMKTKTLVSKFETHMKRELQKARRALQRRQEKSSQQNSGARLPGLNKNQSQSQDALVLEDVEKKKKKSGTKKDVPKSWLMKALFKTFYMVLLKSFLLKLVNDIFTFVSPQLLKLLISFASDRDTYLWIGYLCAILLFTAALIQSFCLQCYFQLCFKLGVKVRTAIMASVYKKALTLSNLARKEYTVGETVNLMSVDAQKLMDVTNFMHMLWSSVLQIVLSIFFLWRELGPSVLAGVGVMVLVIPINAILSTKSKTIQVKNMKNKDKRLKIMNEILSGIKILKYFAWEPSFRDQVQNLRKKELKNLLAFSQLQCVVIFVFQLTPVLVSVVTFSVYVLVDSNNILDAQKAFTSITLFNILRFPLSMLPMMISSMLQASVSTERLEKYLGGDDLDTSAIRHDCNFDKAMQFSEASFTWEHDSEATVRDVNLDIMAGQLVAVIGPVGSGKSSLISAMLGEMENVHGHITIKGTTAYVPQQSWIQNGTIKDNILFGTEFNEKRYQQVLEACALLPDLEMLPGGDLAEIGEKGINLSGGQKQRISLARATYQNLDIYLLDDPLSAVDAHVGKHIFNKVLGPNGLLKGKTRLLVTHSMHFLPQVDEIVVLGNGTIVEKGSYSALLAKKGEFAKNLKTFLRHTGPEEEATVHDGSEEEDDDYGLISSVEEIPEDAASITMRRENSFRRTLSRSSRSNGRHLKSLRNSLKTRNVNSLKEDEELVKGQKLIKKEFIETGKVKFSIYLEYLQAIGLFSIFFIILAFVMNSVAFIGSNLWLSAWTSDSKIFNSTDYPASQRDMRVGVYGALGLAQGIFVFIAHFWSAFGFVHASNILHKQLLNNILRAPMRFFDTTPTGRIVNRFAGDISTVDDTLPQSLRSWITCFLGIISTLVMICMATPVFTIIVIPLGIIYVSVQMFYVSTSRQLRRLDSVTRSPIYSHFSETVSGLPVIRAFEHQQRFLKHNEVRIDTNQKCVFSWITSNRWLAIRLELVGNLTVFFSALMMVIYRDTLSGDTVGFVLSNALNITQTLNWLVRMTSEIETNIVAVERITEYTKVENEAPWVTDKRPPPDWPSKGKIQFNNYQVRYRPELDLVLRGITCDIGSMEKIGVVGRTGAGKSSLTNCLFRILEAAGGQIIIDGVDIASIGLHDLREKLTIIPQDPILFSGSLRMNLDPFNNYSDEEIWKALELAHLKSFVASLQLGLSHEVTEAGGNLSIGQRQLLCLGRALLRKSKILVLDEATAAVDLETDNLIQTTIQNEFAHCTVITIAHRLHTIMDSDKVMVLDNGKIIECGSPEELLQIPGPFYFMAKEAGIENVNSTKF

In the case of `COC(=O)[C@H](c1ccccc1Cl)N1CCc2sccc2C1` [CP, clopidogrel], the IC50 (BCRP [1]; IC50 BCRP-mediated RSV transport, 1 μM RSV, membrane vesicles) is given as roughly 0.001 µM, the inhibition at 0.001 μM (BCRP [1]; human) is given as 56.9% and the IC50 (BCRP [2]) is given as 63 µM.

For `CC(C)c1nc(N(C)S(C)(=O)=O)nc(-c2ccc(F)cc2)c1/C=C/[C@@H](O)C[C@@H](O)CC(=O)O` [RSV, rosuvastatin], the “Individual contribution of OATP1B3 to hepatic uptake” value (OATP1B3) is given as 0.11, the “Individual contribution of NTCP to hepatic uptake” value [3] is given as 0.21 and the “Uptake ratio into MRP2-expressing membrane vesicles” value (MRP2) is given as “less than 2”. For the same molecule, the Tmax ([4]; liver, iv, i.v. RSV 5 mg/kg, with DDI (multiple p.o. CP 27 mg/kg), read-out: Liver Tmax (converted)) was 1.72 min, the Tmax ([4]; liver, iv, i.v. RSV 5 mg/kg, without DDI, read-out: Liver Tmax (converted)) was 2 min and the Kp ([4]; intravenous, i.v. RSV 5 mg/kg, with DDI (multiple p.o. CP 27 mg/kg)) was 1.38 ± 0.13. The Kp ([4]; iv, i.v. RSV 5 mg/kg, without DDI) was 1.72 ± 0.18, the Cmax [4, 5] was 56 ± 9.15 µg/mL and the AUC(0-t) [4, 5] was 1710 ng·h/mL. The Tmax ([4]; plasma, iv, i.v. RSV 5 mg/kg, with DDI (multiple p.o. CP 27 mg/kg), read-out: Plasma Tmax (converted)) was 0.36 min, the Cmax [4, 6] was 62.1 ± 24.2 µg/mL and the AUC(0-t) [4, 6] was 1190 ng·h/mL. For the same molecule, the Tmax ([4]; plasma, iv, i.v. RSV 5 mg/kg, without DDI, read-out: Plasma Tmax (converted)) was 0.31 min, the “Bile0-5min (with DDI/without DDI)%” value ([4]; i.v. RSV 5 mg/kg) was 84.95% and the “Bile0-5min/Liver AUC0-5min (with DDI/without DDI)%” value ([4]; i.v. RSV 5 mg/kg) was 73.81%. For the same molecule, the “CLint,bile (with DDI/without DDI)%” value ([4]; i.v. RSV 5 mg/kg) was 60.81%, the “CLuptake,liver (with DDI/without DDI)%” value ([4]; i.v. RSV 5 mg/kg) was 47.62% and the “Liver AUC0-5min (with DDI/without DDI)%” value ([4]; i.v. RSV 5 mg/kg) was 115.37%. The “Liver AUC0-5min/Plasma AUC0-5min (with DDI/without DDI)%” value ([4]; i.v. RSV 5 mg/kg) was 80.23%, the “Liver Cmax (with DDI/without DDI)%” value ([4]; i.v. RSV 5 mg/kg) was 94.79% and the “Liver Tmax (with DDI/without DDI)%” value ([4]; i.v. RSV 5 mg/kg) was 86.00%. The “Plasma AUC0-5min (with DDI/without DDI)%” value ([4]; i.v. RSV 5 mg/kg) was 143.73%, the “Plasma Cmax (with DDI/without DDI)%” value ([4]; i.v. RSV 5 mg/kg) was 90.18% and the “Plasma Tmax (with DDI/without DDI)%” value ([4]; i.v. RSV 5 mg/kg) was 116.13%. The Bile0-5min [4, 7] was 218.80 ± 138.59 µg, the “Bile0-5min/Liver AUC0-5min” value [4, 7] was 1.55 ± 0.98 g/min and the “Liver AUC0-5min” value [4, 7] was 141196.71 ± 13631.53 ng·min/g. For the same molecule, the “Liver Cmax” value [4, 7] was 36840.00 ± 1304.15 ng/g, the “CLint,bile” value [4, 7] was 1.80 ± 1.10 g/min and the “CLuptake,liver” value [4, 7] was 0.40 ± 0.15 mL/min/g. For the same molecule, the Bile0-5min ([4]; i.v. RSV 5 mg/kg, without DDI) was 257.57 ± 104.42 µg, the “Bile0-5min/Liver AUC0-5min” value ([4]; i.v. RSV 5 mg/kg, without DDI) was 2.10 ± 0.85 g/min and the “Liver AUC0-5min” value ([4]; i.v. RSV 5 mg/kg, without DDI) was 122384.16 ± 13075.60 ng·min/g. For the same molecule, the “Liver Cmax” value ([4]; i.v. RSV 5 mg/kg, without DDI) was 38866.67 ± 3503.67 ng/g, the “CLint,bile” value ([4]; i.v. RSV 5 mg/kg, without DDI) was 2.96 ± 1.50 g/min and the “CLuptake,liver” value ([4]; i.v. RSV 5 mg/kg, without DDI) was 0.84 ± 0.45 mL/min/g. The “Decrease of RSV CLint,bile in presence of CP” value ([4]; i.v. RSV, not significant) was 39.19%, the “Decrease of RSV CLuptake,liver in presence of CP” value ([4]; i.v. RSV, not significant) was 52.38% and the “Decrease of RSV bile0–5min/liver AUC0–5min in presence of CP” value ([4]; i.v. RSV, not significant) was 26.19%. The “Decrease of RSV liver AUC0–5min/plasma AUC0–5min in presence of CP” value ([4]; i.v. RSV, not significant) was 19.77%.
